Key:
Format in all cases: in vivo
[1] = system: Digitaria ciliaris; experiment: Test Example 5: herbicidal effect by foliage application, plastic box (symbol F); settings: 3 weeks after application
In short: (§1)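 Leaf-applied emulsion, water-diluted to a preset herbicide dose, on two-week-old seedlings raised in a 25° C. to 30° C. greenhouse; injury rated at 3 weeks using earlier criteria.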

[2] = system: Echinochloa oryzacola Vasing.; experiment: Test Example 2: herbicidal activity, application during weed generation in submerged conditions (symbol A); settings: Table 23, grade 0-5 by criteria of Test Example 1
In short: (§2)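 Paddy pot test, submerged (4 cm water), alluvial soil, mixed sowing; greenhouse 25–30° C. Emulsion formulation diluted to predetermined rate, applied onto floodwater at 1–2 leaf stage. Visual herbicidal rating at 3 wk post-treatment.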

[3] = system: Avena fatua; experiment: Test Example 4: herbicidal effect by soil treatment (symbol I)
In short: (§3)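 Seeds were sown in sterilized diluvial soil, covered with about 1.5 cm of soil, and the soil surface was sprayed with a water-diluted emulsion of the compound at a predetermined rate. Plants grew in a greenhouse at 25° C. to 30° C.; effects were scored visually 3 weeks after application.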

[4] = system: Abutilon theophrasti; experiment: Test Example 4: herbicidal effect by soil treatment (symbol M)
In short: as §3

[5] = system: Amaranthus retroflexus; experiment: Test Example 5: herbicidal effect by foliage application, plastic box (symbol N); settings: 3 weeks after application
In short: as §1

[6] = system: Scirpus juncoides; experiment: Test Example 2: herbicidal activity, application during weed generation in submerged conditions (symbol B); settings: Table 23, grade 0-5 by criteria of Test Example 1
In short: as §2

[7] = system: Veronica persica; experiment: Test Example 5: herbicidal effect by foliage application, plastic box (symbol R); settings: 3 weeks after application
In short: as §1

[8] = system: corn; experiment: Test Example 5: effect on crop by foliage application, plastic box (symbol c); settings: 3 weeks after application
In short: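 Sterilized diluvial soil, plastic box (21 × 13 × 7 cm); spot sowing, ~1.5 cm soil cover; greenhouse 25–30° C.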

[9] = system: corn; experiment: Test Example 4: effect on crop by soil treatment (symbol c)
In short: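 Diluvial soil (sterilized) in boxes; seeds placed spot-wise alongside weed species; ~1.5 cm covering soil. Greenhouse, 25–30° C.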

[10] = system: Alopecurus myosuroides; experiment: Test Example 4: herbicidal effect by soil treatment (symbol J)
In short: as §3

[11] = system: Echinochloa crus-galli var. crus-galli; experiment: Test Example 3: herbicidal effect by foliage application, Wagner pot (symbol H)
In short: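 Foliar spray of water-diluted emulsion formulation at a predetermined herbicide amount onto 14-day-old plants in flooded alluvial soil (water depth 0.1–0.5 cm), greenhouse 25–30 °C; rice sown alongside. Scored 3 wk post-application on set criteria.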

[12] = system: Apera spica-venti; experiment: Test Example 4: herbicidal effect by soil treatment (symbol L)
In short: as §3

[13] = system: transplanted rice plant; experiment: Test Example 1: effect on crop, application before weed generation in submerged conditions (symbol a)
In short: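 Rice at 2.5 leaf stage transplanted into submerged soil (4 cm depth) sown with three weed species; herbicide applied before weed emergence.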

[14] = system: Alopecurus myosuroides; experiment: Test Example 5: herbicidal effect by foliage application, plastic box (symbol J); settings: 3 weeks after application
In short: as §1

[15] = application herbicide amount 320 g/ha
[16] = application herbicide amount 102 g/ha

| SMILES | F: Digitaria ciliaris, herbicidal effect (criteria 0-5) ([1]; 320 g/ha) | Herbicidal effect grade, A: Echinochloa oryzacola Vasing. [2, 15] | I: Avena fatua, herbicidal effect grade ([3]; 320 g/ha) | M: Abutilon theophrasti, herbicidal effect grade ([4]; 320 g/ha) | N: Amaranthus retroflexus, herbicidal effect (criteria 0-5) ([5]; 320 g/ha) | Herbicidal effect grade, B: Scirpus juncoides [6, 15] | R: Veronica persica, herbicidal effect (criteria 0-5) ([7]; 320 g/ha) | c: corn, effect on crop (criteria 0-5) ([8]; 320 g/ha) | c: corn, effect grade on crop ([9]; 320 g/ha) | J: Alopecurus myosuroides, herbicidal effect grade ([10]; 320 g/ha) | herbicidal effect on H (Echinochloa crus-galli var. crus-galli), grade 0-5 [11, 15] | L: Apera spica-venti, herbicidal effect grade ([12]; 320 g/ha) | Effect grade on crop, a: transplanted rice plant [13, 15] | J: Alopecurus myosuroides, herbicidal effect (criteria 0-5) ([14]; 320 g/ha) | F: Digitaria ciliaris, herbicidal effect grade ([1]; 320 g/ha) | N: Amaranthus retroflexus, herbicidal effect grade ([5]; 320 g/ha) | R: Veronica persica, herbicidal effect grade ([7]; 320 g/ha) | c: corn, effect on crop grade ([8]; 320 g/ha) | J: Alopecurus myosuroides, herbicidal effect grade ([14]; 320 g/ha) | other results |
| --- | --- | --- | --- | --- | --- | --- | --- | --- | --- | --- | --- | --- | --- | --- | --- | --- | --- | --- | --- | --- |
| CCC(Oc1ccc2ncc(Br)cc2c1)C(=O)OC1=C(c2c(C)cc(C)cc2C)C(=O)C(CC(C)=NOC)C1 (stereo not shown) [1-140] | 5 (Herbicidal ratio of 90% or more (almost completely withered)) | 5 (Herbicidal ratio of 90% or more (almost completely withered)) | 4 (Herbicidal ratio of 70% or higher and lower than 90%) | 5 (Herbicidal ratio of 90% or more (almost completely withered)) | 3 (Herbicidal ratio of 40% or higher and lower than 70%) | 5 (Herbicidal ratio of 90% or more (almost completely withered)) | 3 (Herbicidal ratio of 40% or higher and lower than 70%) | 4 (Herbicidal ratio of 70% or higher and lower than 90%) | 4 (Herbicidal ratio of 70% or higher and lower than 90%) | 5 (Herbicidal ratio of 90% or more (almost completely withered)) | 5 (Herbicidal ratio of 90% or more (almost completely withered)) | 5 (Herbicidal ratio of 90% or more (almost completely withered)) | 5 (Herbicidal ratio of 90% or more (almost completely withered)) | 5 (Herbicidal ratio of 90% or more (almost completely withered)) | – | – | – | – | – | – |
| CON=C(CC1CC(O)=C(c2c(C)cc(-n3cc(Cl)cn3)cc2C)C1=O)C1CC1 (stereo not shown) [9-007] | – | 5 (Herbicidal ratio of 90% or more (almost completely withered)) | – | – | – | 4 (Herbicidal ratio of 70% or higher and lower than 90%) | – | – | – | – | – | – | – | – | 5 (Herbicidal ratio of 90% or more (almost completely withered)) | 0 (Herbicidal ratio of 5% or lower (almost no effect)) | 4 (Herbicidal ratio of 70% or higher and lower than 90%) | 5 (Herbicidal ratio of 90% or more (almost completely withered)) | 5 (Herbicidal ratio of 90% or more (almost completely withered)) | Herbicidal effect grade, I: Avena fatua [3, 15]: 3 (Herbicidal ratio of 40% or higher and lower than 70%); Herbicidal effect grade, M: Abutilon theophrasti [4, 15]: 0 (Herbicidal ratio of 5% or lower (almost no effect)); Effect on crop grade, c: corn [9, 15]: 0 (Herbicidal ratio of 5% or lower (almost no effect)); Herbicidal effect grade, J: Alopecurus myosuroides [10, 15]: 5 (Herbicidal ratio of 90% or more (almost completely withered)); H (Echinochloa crus-galli var. crus-galli) herbicidal effect grade ([11]; application herbicide amount 320 g/ha, Table 24): 5 (Herbicidal ratio of 90% or more (almost completely withered)); Herbicidal effect grade, L: Apera spica-venti [12, 15]: 5 (Herbicidal ratio of 90% or more (almost completely withered)); a (transplanted rice plant) effect on crop grade [13, 15]: 5 (Herbicidal ratio of 90% or more (almost completely withered)) |
| CON=C(C)CC1CC(OC(=O)c2nc(C)sc2C)=C(c2c(C)cc(C)cc2C)C1=O (stereo not shown) [1-101] | 5 (Herbicidal ratio of 90% or more (almost completely withered)) | 5 (Herbicidal ratio of 90% or more (almost completely withered)) | 3 (Herbicidal ratio of 40% or higher and lower than 70%) | 5 (Herbicidal ratio of 90% or more (almost completely withered)) | 5 (Herbicidal ratio of 90% or more (almost completely withered)) | 5 (Herbicidal ratio of 90% or more (almost completely withered)) | 3 (Herbicidal ratio of 40% or higher and lower than 70%) | 5 (Herbicidal ratio of 90% or more (almost completely withered)) | 5 (Herbicidal ratio of 90% or more (almost completely withered)) | 5 (Herbicidal ratio of 90% or more (almost completely withered)) | 5 (Herbicidal ratio of 90% or more (almost completely withered)) | 5 (Herbicidal ratio of 90% or more (almost completely withered)) | 5 (Herbicidal ratio of 90% or more (almost completely withered)) | 5 (Herbicidal ratio of 90% or more (almost completely withered)) | – | – | – | – | – | – |
| CC(=O)CC1CC(O)=C(c2c(C)cc(C)cc2C)C1=O (stereo not shown) [2-001, 3-hydroxy-2-mesityl-5-(2-oxopropyl)cyclopent-2-enone] | – | – | – | – | – | – | – | – | – | – | – | – | – | – | – | – | – | – | – | F: Digitaria ciliaris, herbicidal effect grade ([1]; 102 g/ha): 5 (Herbicidal ratio of 90% or more (almost completely withered)); Herbicidal effect grade, A: Echinochloa oryzacola Vasing. [2, 16]: 0 (Herbicidal ratio of 5% or lower (almost no effect)); I: Avena fatua, herbicidal effect grade ([3]; 102 g/ha): 0 (Herbicidal ratio of 5% or lower (almost no effect)); M: Abutilon theophrasti, herbicidal effect grade ([4]; 102 g/ha): 3 (Herbicidal ratio of 40% or higher and lower than 70%); N: Amaranthus retroflexus, herbicidal effect grade ([5]; 102 g/ha): 2 (Herbicidal ratio of 20% or higher and lower than 40%); Herbicidal effect grade, B: Scirpus juncoides [6, 16]: 0 (Herbicidal ratio of 5% or lower (almost no effect)); R: Veronica persica, herbicidal effect grade ([7]; 102 g/ha): 2 (Herbicidal ratio of 20% or higher and lower than 40%); c: corn, effect on crop grade ([8]; 102 g/ha): 3 (Herbicidal ratio of 40% or higher and lower than 70%); c: corn, effect grade on crop ([9]; 102 g/ha): 4 (Herbicidal ratio of 70% or higher and lower than 90%); J: Alopecurus myosuroides, herbicidal effect grade ([10]; 102 g/ha): 4 (Herbicidal ratio of 70% or higher and lower than 90%); herbicidal effect on H (Echinochloa crus-galli var. crus-galli), grade 0-5 [11, 16]: 5 (Herbicidal ratio of 90% or more (almost completely withered)); L: Apera spica-venti, herbicidal effect grade ([12]; 102 g/ha): 2 (Herbicidal ratio of 20% or higher and lower than 40%); Effect grade on crop, a: transplanted rice plant [13, 16]: 4 (Herbicidal ratio of 70% or higher and lower than 90%); J: Alopecurus myosuroides, herbicidal effect grade ([14]; 102 g/ha): 5 (Herbicidal ratio of 90% or more (almost completely withered)) |
| C=CCOC1=C(c2c(C)cc(C)cc2C)C(=O)C(CC(C)=NOC)C1 (stereo not shown) [1-007] | – | 0 (Herbicidal ratio of 5% or lower (almost no effect)) | – | – | – | 0 (Herbicidal ratio of 5% or lower (almost no effect)) | – | – | – | – | 0 (Herbicidal ratio of 5% or lower (almost no effect)) | – | 0 (Herbicidal ratio of 5% or lower (almost no effect)) | – | 0 (Herbicidal ratio of 5% or lower (almost no effect)) | 0 (Herbicidal ratio of 5% or lower (almost no effect)) | 0 (Herbicidal ratio of 5% or lower (almost no effect)) | 0 (Herbicidal ratio of 5% or lower (almost no effect)) | 3 (Herbicidal ratio of 40% or higher and lower than 70%) | I (Avena fatua) herbicidal effect grade [3, 15]: 0 (Herbicidal ratio of 5% or lower (almost no effect)); M (Abutilon theophrasti) herbicidal effect grade [4, 15]: 0 (Herbicidal ratio of 5% or lower (almost no effect)); c (corn) effect on crop grade [9, 15]: 0 (Herbicidal ratio of 5% or lower (almost no effect)); J (Alopecurus myosuroides) herbicidal effect grade [10, 15]: 0 (Herbicidal ratio of 5% or lower (almost no effect)); L (Apera spica-venti) herbicidal effect grade [12, 15]: 3 (Herbicidal ratio of 40% or higher and lower than 70%) |

From US11000033B2, “Ketone or oxime compound, and herbicide” (NISSAN CHEMICAL CORPORATION, priority 2014, dated 2021)
